Results published in patent US20230129034A1, “TREATMENT OF DISEASE WITH ESTERS OF SELECTIVE RXR AGONISTS” (Io Therapeutics, Inc., priority 2017, published 2023).

Legend:
Th17 cells = test: Th17 cell differentiation / IL-17 production in vitro; type: cell-based
RXRγ = target: T1, RXRγ (Homo sapiens, UniProt P48443); test: RXR homodimer transactivation assay (rCRBPII/RXRE-tk-Luc reporter, CV-1 cells); type: cell-based
T1 construct: an expression construct including a full length RXRα, RXRβ, or RXRy; expressed in transfected cells; host or cells: CV-1
T1 sequence (P48443 1-463): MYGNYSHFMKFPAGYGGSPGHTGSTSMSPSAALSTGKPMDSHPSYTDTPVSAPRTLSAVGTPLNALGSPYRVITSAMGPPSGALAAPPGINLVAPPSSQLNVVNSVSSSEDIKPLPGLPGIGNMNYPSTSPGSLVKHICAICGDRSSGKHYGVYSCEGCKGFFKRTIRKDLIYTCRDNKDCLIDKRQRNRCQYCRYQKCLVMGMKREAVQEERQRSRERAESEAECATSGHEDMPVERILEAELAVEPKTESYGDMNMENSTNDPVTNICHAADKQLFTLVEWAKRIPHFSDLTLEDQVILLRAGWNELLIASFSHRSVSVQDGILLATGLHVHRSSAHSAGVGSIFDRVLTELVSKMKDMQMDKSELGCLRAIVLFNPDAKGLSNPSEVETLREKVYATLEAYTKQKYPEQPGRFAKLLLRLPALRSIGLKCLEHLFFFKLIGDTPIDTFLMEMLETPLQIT
Description: (§1) Data are mean values ± SE from five independent experiments.

RXRβ = target: T2, RXRβ (Homo sapiens, UniProt P28702); test: as above; type: cell-based
T2 construct: an expression construct including a full length RXRα, RXRβ, or RXRy; expressed in transfected cells; host or cells: CV-1
T2 sequence (P28702 1-533): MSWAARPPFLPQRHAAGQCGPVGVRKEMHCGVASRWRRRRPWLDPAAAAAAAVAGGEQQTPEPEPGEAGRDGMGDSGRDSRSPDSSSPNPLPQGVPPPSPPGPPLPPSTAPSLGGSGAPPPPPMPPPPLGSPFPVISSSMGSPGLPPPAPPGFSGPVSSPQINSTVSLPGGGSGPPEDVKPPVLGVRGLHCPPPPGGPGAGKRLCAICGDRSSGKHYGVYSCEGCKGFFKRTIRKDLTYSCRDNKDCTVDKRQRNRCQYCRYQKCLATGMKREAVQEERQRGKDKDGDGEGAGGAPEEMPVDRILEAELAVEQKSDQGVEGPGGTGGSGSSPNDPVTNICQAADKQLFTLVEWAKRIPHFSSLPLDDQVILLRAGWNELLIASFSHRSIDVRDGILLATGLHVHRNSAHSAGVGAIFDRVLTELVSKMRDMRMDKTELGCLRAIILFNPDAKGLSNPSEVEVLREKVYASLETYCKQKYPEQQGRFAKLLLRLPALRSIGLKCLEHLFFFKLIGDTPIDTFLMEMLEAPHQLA
Description: as §1

[1] = test system: demyelination in C57BL/6J mice; test: Cuprizone/rapamycin (CR) chronic 12-week mouse model of toxic demyelination; type: in vivo; conditions: 12 weeks CR; for # of Myelinated Axons per CC unit (PPD staining, corpus callosum) / % Area of Myelin Cortex (PLP staining) / % Area of Myelin Hippocampus (PLP staining): then 10 mg/kg/d PO daily for 6 weeks, with or without 20 ng/g thyroxine SC
Procedure: Mice are fed a cuprizone-containing diet and injected with rapamycin daily (CR regimen) for 12 weeks to induce demyelination. One group of animals is sacrificed at 12 weeks to evaluate demyelination. […] At the end of the study, all mice are sacrificed and one or more of the following parameters are determined: (1) PPD (p-phenylenediamine) staining to visualize and quantify myelinated axons in corpus callosum to assess demyelination and remyelination in white matter; (2) myelin proteolipid protein (PLP) immunostaining to visualize and quantify myelin in hippocampus to assess demyelination and remyelination in grey matter (hippocampus); (3) PLP immunostaining to visualize and quantify myelin in cortex to assess demyelination and remyelination in grey matter (cortex); (4) PDGFRα immunostaining to visualize and quantify OPCs in corpus callosum; (5) GSTpi immunostaining to visualize and quantify oligodendrocytes in corpus callosum; (6) Iba1 (ionized calcium-binding adapter molecule 1) and/or Mac-2 (galectin-3) immunostaining to visualize and quantify total and activated microglia in corpus callosum; (7) GFAP (glial fibrillary acidic protein) immunostaining to visualize and quantify astrocytes in corpus callosum To assess astroglial activation; and (8) 3D-electron microscopy in corpus callosum to assess ratio of myelinated and non-myelinated axons, internodal length, G-ratio, mitochondrial changes, etc.
The animals (8 week-old male C57BL/6J mice) are subjected to cuprizone diet plus rapamycin injections (CR) for 12 weeks to induce demyelination in white matter (CC, corpus callosum). After 12 weeks, CR is discontinued and subsets of animals are treated daily for 6 weeks with one of the following treatment regimens:
All animals are sacrificed after 12 weeks of CR (Group 7) or after further 6 weeks of treatment (Groups 1-6) to evaluate myelin in white matter (corpus callosum) and gray matter (hippocampus and cortex). In addition, the size of myelinated axons are quantified and the large myelinated axons are further assessed by 3D-electron microscopy (3D-EM).
A total of 92 mice are included in the study. Eight week-old male C57BL/6J mice are placed on a rodent chow (Harlan) containing 0.3% cuprizone for 12 weeks. These mice are also injected with rapamycin (approximately 10 mg/kg body weight at the volume of 0.1 ml, IP) daily for 12 weeks. Eight mice are maintained on a normal diet. The weight of the animals is monitored on a weekly-basis.
The drug is reconstituted in vehicle (DMSO/PBS/Tween) and fresh drug is made up once a week and administered orally once daily. […] Similarly, subgroups (n=12) of CR treated mice are treated with oral IRX4204EE and subcutaneous thyroxine vehicle (Group 5) or oral IRX4204EE and subcutaneous thyroxine (Group 6) at the indicated doses.
Epon-PPD stained sections of corpus callosum are evaluated in bright field at 10X, 20X and 63X (oil objective). A total of 4 images (63X) per animal are collected in the region of interest (ROI), which is a specific region between the rostral corpus callosum and the junction of the fornix. The images outside the ROI are not scored. The images are then evaluated using NIH ImageJ (aka. Fiji) to identify and count myelinated axons in the region of interest. The numbers of PPD-stained myelinated axons in all of the counting boxes for each image are counted. Using the polygon selection tool, the margins of the corpus callosum in each slice are identified and ImageJ is then used to calculate the total area of the CC in that slice. The total number of myelinated axons in a specific area of the corpus callosum is then calculated by dividing the total area of the CC by the total area of the counting boxes and multiplying by the combined number of myelinated axons that are counted in all of the counting boxes for each image. […]

[2] = CV-1 cells, 20 hours, luciferase activity

Row | SMILES | inhibiting the differentiation of Th17 cells, relative to parent form (Th17 cells; in vitro cell culture) | EC50 (RXRγ; [2]) [nM] | EC50 (RXRβ; [2]) [nM] | # of Myelinated Axons per CC unit (PPD staining, corpus callosum) [1] | % Area of Myelin Cortex (PLP staining) [1] [%] | % Area of Myelin Hippocampus (PLP staining) [1] [%] | increase in myelin volume compared to vehicles control ([1]; then 6 weeks treatment) | remyelination and neuroprotection activity relative to IRX4204 groups ([1]; then 6 weeks treatment) | production of IL-17 (Th17 cells; 1 nM) | Efficacy (% of 1 µM IRX4204) RXRγ (RXRγ) | EC90 (RXRγ; CV-1, read-out: EC90 with RXRγ) [nM] | EC90 (RXRβ; CV-1, read-out: EC90 with RXRβ) [nM] | average diameter of myelinated axons ([1]; then 6 weeks treatment)
1 | CCOC(=O)/C=C(C)/C=C/[C@@H]1C[C@]1(C)c1ccc2c(c1)C(C)(C)CCC2(C)C [IRX4204EE, 3,7-dimethyl-6(S),7(S)-methano,7-[1,1,4,4-tetramethyl-1,2,3,4-tetrahydronaphth-7-yl]2(E),4(E) heptadienoic ethyl ester] | less active than its parent form | > 1000 | > 1000 | 4300 | 85 | 68 | approximately 25% | greater remyelination and neuroprotection activity than the corresponding IRX4204 treated groups | – | – | – | – | –
2 | CC(/C=C/[C@@H]1C[C@]1(C)c1ccc2c(c1)C(C)(C)CCC2(C)C)=C\C(=O)O [IRX4204, 3,7-dimethyl-6(S),7(S)-methano,7-[1,1,4,4-tetramethyl-1,2,3,4-tetrahydronaphth-7-yl]2(E),4(E) heptadienoic acid] | – | – | – | 1570 | 48 | 38 | approximately 15% | – | profoundly inhibits production of IL-17 | 0.09 ±0.01 100 % of 1 µM IRX4204 | ~0.1 | ~1 | approximately 0.9 µm
